Reference: US20060258598A1, “Alpha-keto carbonyl calpain inhibitors” (priority 2003, published 2006)

What was measured:
[1] = tested on: experimental muscular dystrophy in hamster; conditions: cited from earlier work
20S Proteasome = molecular target: T1, 20S Proteasome (Oryctolagus cuniculus, UniProt G1T4Q9); assay: 20S Proteasome assay; type: biochemical, Rabbit; conditions: substrate Suc-Leu-Leu-Val-Tyr-AMC; read-out: 20S Prot IC50
T1 sequence (G1T4Q9 1-263): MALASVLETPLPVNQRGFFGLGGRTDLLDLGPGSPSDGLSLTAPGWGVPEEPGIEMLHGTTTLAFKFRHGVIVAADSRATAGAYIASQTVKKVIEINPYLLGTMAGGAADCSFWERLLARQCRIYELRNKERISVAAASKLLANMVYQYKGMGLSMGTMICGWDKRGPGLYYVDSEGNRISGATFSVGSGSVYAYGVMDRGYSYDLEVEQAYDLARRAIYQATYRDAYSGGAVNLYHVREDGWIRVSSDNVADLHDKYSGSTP
Protocol: 25 μl of a reaction buffer containing 400 μM of the fluorogenic substrate Suc-Leu-Leu-Val-Tyr-AMC (Bachem) are dispensed per well of a white microtiter plate. Test compounds dissolved in 0.5 μl DMSO are added. To start the reaction; 25 μl of reaction buffer containing 35 ng of enzyme (20S Proteasome, Rabbit, Calbiochem) are added. The increase in fluorescence (excitation at 360 nm; emission at 440 nm) is measured over 30 min at 30° C. at 30″. The IC50's are then determined from the slopes.

[2] = tested on: cellular calpains in C2C12 myoblasts; assay: Calpain inhibition assay in C2C12 myoblasts; type: cell-based; conditions: 2 h incubation, calcium ionophore Br-A-23187, read-out: Calp I IC50 Myoblast
Summary of the method: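 Confluent C2C12 myoblasts in fusion medium (DMEM, 5% horse serum) exposed to compound for 2 h at 37 °C, then loaded with 400 μM Suc-Leu-Tyr-AMC for 20 min at room temperature in buffer with 4 mM CaCl2, HEPES pH 7.25. Calpains activated by Br-A-23187 ionophore (20 μM in added buffer); AMC fluorescence read each minute for 60 min at 37 °C to derive IC50.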

mdx mouse = assay: Longterm treatment of mdx mice (model for Duchenne Muscular Dystrophy); type: in vivo; conditions: 3 week old mice, treatment period of 4 weeks
Protocol: The mdx mouse is a well established animal model for Duchenne Muscular Dystrophy (Bulfield G., Siller W. G., Wight P. A., Moore K. J., X chromosome-linked muscular dystrophy (mdx) in the mouse, Proc. Natl. Acad. Sci. USA., 1984, 81(4), 1189-1192). Selected compounds were tested in longterm treatments of mdx mice, according to the procedures described below.
Mouse strains: C57BL/10scsn and C57BL/10scsn mdx mouse strains were purchased at The Jackson Laboratory (ME, USA) and bred inhouse. Mouse males were sacrificed at the age of 3 or 7 weeks by CO2 asphyxiation.
Treatment: Compounds were dissolved in 50% PEG, 50% saline solution and applied by i.p. injection.
Histology: Tibialis anterior (TA) and diaphragm (Dia) muscles were collected and mounted on cork supports using gum tragacanth (Sigma-Aldrich, Germany). The samples were snap-frozen in melting isopentane and stored at −80° C. 12 μm thick cryosections of the mid-belly region of muscles were prepared. For staining, sections were air dried and fixed with 4% PFA in PBS for 5 minutes, washed 3 times with PBS and incubated over night at 4° C. in PBS containing 2 μg/ml Alexa Fluor™ 488 conjugated wheat-germ agglutinin (WGA-Alexa, Molecular Probes, Eugen, Oreg., USA) to stain membrane-bound and extracellular epitopes and 1 μg/ml 4′,6-diamidino-2-phenylindole (DAPI; Molecular Probes) to stain nuclei.
Image acquisition and analysis: Fluorescence microscopy images of both labels were acquired using a digital camera (ColorView II, Soft Imaging System, Munster, Germany) coupled to a fluorescence microscope (Vanox S, Olympus, Tokyo, Japan). Combination of these two stainings to a composite image, assembling of several images to a complete image of the entire muscle cross-section and further semi-automated analysis was performed using the image analysis program AnalySIS (Soft Imaging System). Image analysis of 1200-2900 muscle fibers in each section was performed in three steps: 1) determination of the muscle fiber boundaries, 2) determination of the muscle fiber size, and 3) determination of the percentage of muscle fibers containing centralized nuclei. Six different geometrical parameters were tested for the determination of the muscle fiber size: (a) the “minimal feret” (the minimum distance of parallel tangents at opposing borders of the muscle fiber), (b) the “area”, (c) the “minimal inner diameter” (the minimum diameter through the center of the muscle fiber), (d) the “minimal diameter” (the minimum diameter of a muscle fiber for angles in the range 0° through 179° with step width 1°, (e) the “minimal outer diameter” (the minimum diameter through the muscle fiber from outer border to outer border), and (f) the “perimeter”. The variance coefficient of the muscle fiber size is defined as follows: variance coefficient=(standard deviation of the muscle fiber size/mean of the muscle fiber size of the section)*1000. For statistical analysis of different variance coefficient values Mann-Whitney U test was used.
Selected Examples of the present invention were active in the mdx mouse model at 10 mg/kg/day, using 3 week old mice and a treatment period of 4 weeks (N=5−10).

Row | Molecule | life-prolonging effect [1] | IC50 (20S Proteasome) [µM] | IC50 [2] [µM] | activity in the mdx mouse model (mdx mouse)
1 | CCOC(=O)[C@H]1O[C@@H]1C(=O)N[C@@H](CC(C)C)C(=O)NCCC(C)C [Example E-64-d] | life-prolonging effect | – | – | –
2 | Z-Val-Phe-H [MDL-28170, reference compound] | – | > 1 | 40 | did not show statistically significant activity
